How the values were obtained:
[1] = test system: T-wave increase in the ECG induced by lypressin; assay: Influence on the T-wave increase in the ECG of the anesthetized rat induced by intravenous bolus injection of lypressin; assay type: in vivo; settings: p.o.
Experimental: Influence of various compounds on the T-wave
increase in the ECG of the anesthetized rat induced by
intravenous bolus injection of lypressin was determined
following the method of M. Leitold et al., Drug Res.,
36, 1454 (1986). The substances were administered
perorally 30 minutes or at various times before the […]

[2] = Survival rate of rats after an acute coronary ligature; assay type: in vivo, rat
Experimental: Influence of various substances on the survival
rate of rats 60 minutes, 24 hours and 7 days after an
acute coronary ligature was determined following the
method of I. Lepran, et al., L. Szekeres, Acta
Physiologica Sci. Hungaricae 53, 190 (1979). The
substances were administered orally 5 minutes before
the acute coronary ligature.

[3] = test system: cardiovascular parameters (MAP, HR, LVSP, LVEDP, dp/dtmax, TPR, PAP, SV, CO); assay: Cardiovascular actions following intravenous administration to anesthetized dogs (pentobarbital) with opened thorax and artificial respiration; assay type: in vivo, dog; settings: for CO (cardiac output), change / PAP (blood pressure in the A. pulmonalis), change / SV (stroke volume), change: vs pre-value, unsigned
Description: (§1) venous administration to anesthetized dogs (pentobarbital)
(§2) with an opened thorax and artificial respiration.
as §1, §2

[4] = test system: systolic blood pressure (SBP) and heart rate (HR); assay: Systolic blood pressure and heart rate following peroral administration to conscious beagle dogs; assay type: in vivo, beagle dog; settings: mean ± SEM
Description: Duration of the action of various substances on the systolic blood
heart rate (HR) following peroral administration to conscious beagle

[5] = Tolerance of peroral dose in mice; settings: mouse, in vivo, po
Description: Set forth below is data obtained on the compounds of Examples 17, 19 and 20 that illustrates the pharmacological action of the compounds of the present invention.

[6] = 60 minutes, 100.0 mg/kg orally 5 min before ligature
[7] = 24 hours, 100.0 mg/kg orally 5 min before ligature
[8] = 7 days, 100.0 mg/kg orally 5 min before ligature

Structure (SMILES) | Duration of action at the ED50 dose [1] [h] | CO (cardiac output), action of substance ([3]; 30 μg/kg i.v.) [l/M] | CO (cardiac output), duration of action ([3]; 30 μg/kg i.v.) [min] | PAP (blood pressure in the A. pulmonalis), action of substance ([3]; 30 μg/kg i.v.) [mmHg] | PAP (blood pressure in the A. pulmonalis), duration of action ([3]; 30 μg/kg i.v.) [min] | SV (stroke volume), duration of action ([3]; 30 μg/kg i.v.) [min] | CO (cardiac output), change ([3]; 30 μg/kg i.v.) [l/M] | PAP (blood pressure in the A. pulmonalis), change ([3]; 30 μg/kg i.v.) [mmHg] | SV (stroke volume), change ([3]; 30 μg/kg i.v.) [mL/s] | CO (cardiac output), duration of action ([3]; 300 μg/kg i.v.) [min] | PAP (blood pressure in the A. pulmonalis), duration of action ([3]; 300 μg/kg i.v.) [min] | SV (stroke volume), action of substance ([3]; 300 μg/kg i.v.) [mL/s] | SV (stroke volume), duration of action ([3]; 300 μg/kg i.v.) [min] | PAP (blood pressure in the A. pulmonalis), change ([3]; 300 μg/kg i.v.) [mmHg] | SV (stroke volume), change ([3]; 300 μg/kg i.v.) [mL/s] | CO (cardiac output), duration of action ([3]; 3000 μg/kg i.v.) [min] | PAP (blood pressure in the A. pulmonalis), duration of action ([3]; 3000 μg/kg i.v.) [min] | SV (stroke volume), duration of action ([3]; 3000 μg/kg i.v.) [min] | CO (cardiac output), change ([3]; 3000 μg/kg i.v.) [l/m] | Tolerated peroral dose [5] [mg/kg] | also measured
COc1ccccc1N1CCN(CC(O)CO[C@H]2CO[C@H]3[C@@H]2OC[C@H]3O[N+](=O)[O-])CC1 (stereo partly drawn) [Example 17, 2-O-<3-[4-(2-Methoxyphenyl)-piperazinyl]-2-hydroxypropyl>-isosorbide-5-nitrate] | 2 | 0.93 ± 0.07 | 6 ± 3 | 17.0 ± 4 | 2 ± 0.3 | 2 ± 0.2 | 0.07 ± 0.04 | 1.3 ± 0.5 | 0.4 ± 0.2 | 73 ± 40 | 1.4 ± 0.1 | 3.7 ± 0.4 | 74 ± 43 | 1.5 ± 0.5 | 0.7 ± 0.3 | > 75 | 2 ± 0.6 | > 75 | 0.450 ± 0.025 | 500 | Number of rats surviving after an acute coronary ligature ([2]; 60 minutes, 30.0 mg/kg orally 5 min before ligature): 17/20; Number of rats surviving after an acute coronary ligature ([2]; 24 hours, 30.0 mg/kg orally 5 min before ligature): 17/20; Number of rats surviving after an acute coronary ligature ([2]; 7 days, 30.0 mg/kg orally 5 min before ligature): 17/20; SV (stroke volume), action of substance ([3]; 3000 μg/kg i.v.): 3.0 ± 0.6 mL/s; PAP (blood pressure in the A. pulmonalis), change ([3]; 3000 μg/kg i.v.): 2.3 ± 0.8 mmHg; SV (stroke volume), change ([3]; 3000 μg/kg i.v.): 2.6 ± 0.4 mL/s; SBP (systolic blood pressure), action of substance ([4]; 6.0 mg/kg p.o., after 1 hour): 91 ± 6 mmHg; HR (heart rate), action of substance ([4]; 6.0 mg/kg p.o., after 2 hours): 110 ± 16 Bts/M; SBP (systolic blood pressure), action of substance ([4]; 6.0 mg/kg p.o., after 2 hours): 89 ± 4 mmHg; HR (heart rate), action of substance ([4]; 6.0 mg/kg p.o., after 3 hours): 89 ± 8 Bts/M; SBP (systolic blood pressure), action of substance ([4]; 6.0 mg/kg p.o., after 3 hours): 97 ± 5 mmHg; HR (heart rate), action of substance ([4]; 6.0 mg/kg p.o., after 6 hours): 89 ± 5 Bts/M; HR (heart rate), action of substance ([4]; 6.0 mg/kg p.o., after 8 hours): 85 ± 7 Bts/M
COc1ccccc1N1CCN(CC(O)CO[C@@H]2CO[C@H]3[C@@H]2OC[C@H]3O[N+](=O)[O-])CC1 (stereo partly drawn) [Example 19, 5-O-<3-[4-(2-Methoxyphenyl)-piperazinyl]-2-hydroxypropyl>-isomannide-2-nitrate] | 4 |  |  |  |  |  |  |  |  |  |  |  |  |  |  |  |  |  |  | 500 | Number of rats surviving after an acute coronary ligature [2, 6]: 15/20; Number of rats surviving after an acute coronary ligature [2, 7]: 15/20; Number of rats surviving after an acute coronary ligature [2, 8]: 15/20; HR (heart rate), action of substance ([4]; 5.0 mg/kg p.o., after 2 hours): 90 ± 5 Bts/M; HR (heart rate), action of substance ([4]; 5.0 mg/kg p.o., after 3 hours): 85 ± 5 Bts/M; SBP (systolic blood pressure), action of substance ([4]; 5.0 mg/kg p.o., after 3 hours): 118 ± 6 mmHg; HR (heart rate), action of substance ([4]; 5.0 mg/kg p.o., after 6 hours): 86 ± 5 Bts/M
COc1ccccc1N1CCN(CC(O)CO[C@H]2CO[C@H]3[C@@H]2OC[C@@H]3O[N+](=O)[O-])CC1 (stereo partly drawn) [Example 20, 5-O-<3-[4-(2-Methoxyphenyl)-piperazinyl]-2-hydroxypropyl>-isoidide-2-nitrat] | 4 | 0.81 ± 0.3 | 12 ± 6 | 16.0 ± 1 | 11 ± 6 | 12 ± 6 | 0.38 ± 0.1 | 0.4 ± 0.2 | 2.3 ± 1 | 35 ± 23 | 14 ± 13 | 7.2 ± 2.5 | 33 ± 23 | 0.7 ± 0.3 | 0.5 ± 2.9 | 3 ± 0.4 | > 177 | 4 ± 0.0 | 0.87 ± 0.7 | 500 | Number of rats surviving after an acute coronary ligature [2, 6]: 14/20; Number of rats surviving after an acute coronary ligature [2, 7]: 14/20; Number of rats surviving after an acute coronary ligature [2, 8]: 14/20; SV (stroke volume), action of substance ([3]; 30 μg/kg i.v.): 7.5 ± 2 mL/s; CO (cardiac output), change ([3]; 300 μg/kg i.v.): 0.21 ± 0.6 l/M; PAP (blood pressure in the A. pulmonalis), change ([3]; 3000 μg/kg i.v.): 1.1 ± 0.3 mmHg; HR (heart rate), action of substance ([4]; 5.0 mg/kg p.o., after 1 hour): 98 ± 7 Bts/M; SBP (systolic blood pressure), action of substance ([4]; 5.0 mg/kg p.o., after 1 hour): 97 ± 8 mmHg; SBP (systolic blood pressure), action of substance ([4]; 5.0 mg/kg p.o., after 2 hours): 95 ± 6 mmHg; HR (heart rate), action of substance ([4]; 5.0 mg/kg p.o., after 3 hours): 82 ± 7 Bts/M; SBP (systolic blood pressure), action of substance ([4]; 5.0 mg/kg p.o., after 3 hours): 106 ± 4 mmHg; HR (heart rate), action of substance ([4]; 5.0 mg/kg p.o., after 6 hours): 78 ± 6 Bts/M; HR (heart rate), action of substance ([4]; 5.0 mg/kg p.o., after 8 hours): 77 ± 6 Bts/M
